In paper PMC7956643, “Synthesis of Novel Pyrido[1,2-c]pyrimidine Derivatives with 6-Fluoro-3-(4-piperidynyl)-1,2-benzisoxazole Moiety as Potential SSRI and 5-HT1A Receptor Ligands” (International Journal of Molecular Sciences, 2021):
Marks after values point to notes of the source that are not given here.

Tests used:
human 5-HT1A receptor = molecular target: T1, human 5-HT1A receptor (Homo sapiens, UniProt P08908); assay: 5-HT1A radioligand binding assay; conditions: [3H]-8-OH-DPAT 1 nM; membranes from CHO-K1 cells with human 5-HT1A receptor
T1 construct: purchased PerkinElmer; host or cells: CHO-K1 cells, stably transfected
T1 sequence (P08908 1-422): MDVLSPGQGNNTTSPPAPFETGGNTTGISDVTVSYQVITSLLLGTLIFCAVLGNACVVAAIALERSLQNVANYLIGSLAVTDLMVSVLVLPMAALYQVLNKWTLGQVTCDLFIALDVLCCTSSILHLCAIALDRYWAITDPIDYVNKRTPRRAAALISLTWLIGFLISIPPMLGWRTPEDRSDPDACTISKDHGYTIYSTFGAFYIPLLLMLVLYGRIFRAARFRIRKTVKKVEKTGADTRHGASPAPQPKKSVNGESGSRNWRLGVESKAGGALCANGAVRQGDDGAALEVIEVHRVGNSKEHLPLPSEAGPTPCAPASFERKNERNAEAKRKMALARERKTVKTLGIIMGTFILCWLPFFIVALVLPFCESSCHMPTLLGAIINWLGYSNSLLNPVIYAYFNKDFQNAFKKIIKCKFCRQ
Protocol: Radioligand binding was performed using membranes from CHO-K1 cells stably transfected with the human 5-HT1A receptor (PerkinElmer, Fremont, CA, USA). All assays were carried out in duplicate. Then, 50 µL working solution of the tested compounds, 50 µL [^3H]-8-OH-DPAT (final concentration 1 nM) and 150 µL diluted membranes (20 µg protein per well) prepared in assay buffer (50 mM Tris, pH 7.4, 10 mM MgSO4, 0.5 mM EDTA, 0.1% ascorbic acid) were transferred to a polypropylene 96-well microplate using 96-wells pipetting station Rainin Liquidator (MettlerToledo, Columbus, OH, USA). […] The reaction was terminated by rapid filtration through GF/B filter mate, presoaked with 0.5% polyethyleneimine for 30 min. Ten rapid washes with 200 µL 50 mM Tris buffer (4 °C, pH 7.4) were performed using an automated harvester system—Harvester-96 MACH III FM (Tomtec, Hamden, CT, USA). […] Data were fitted to a one-site curve-fitting equation with Prism 6 (GraphPad Software, San Diego, CA, USA) and Ki values were estimated from the Cheng–Prusoff equation.

SERT protein = molecular target: T2, SERT protein (Rattus norvegicus, UniProt P31652); assay: SERT radioligand binding assay; conditions: [3H]-citalopram 1.0 nM; rat cortex tissue
T2 construct: from tissue; host or cells: rat cortex
Protocol: Radioligand binding was performed using rat cortex tissue. All assays were carried out in duplicate. First, 50 µL working solution of the tested compounds, 50 µL [^3H]-citalopram (final concentration 1.0 nM) and 150 µL tissue suspension, prepared in assay buffer (50 mM Tris. pH 7.7; 150 mM NaCl; 5 mM KCl), were transferred to a polypropylene 96-well microplate using 96-wells pipetting station Rainin Liquidator (MettlerToledo). […] The reaction was terminated by rapid filtration through GF/B filter mate presoaked with 0.3% polyethyleneimine for 30 min. Ten rapid washes with 200 µL 50 mM Tris buffer (4 °C, pH 7.7) were performed using an automated harvester system—Harvester-96 MACH III FM (Tomtec). […] Data were fitted to a one-site curve-fitting equation with Prism 6 (GraphPad Software) and Ki values were estimated from the Cheng–Prusoff equation.

5-HT1A receptor = molecular target: T3, 5-HT1A receptor (Mus musculus, UniProt Q64264); assay: Body temperature in mice (induced hypothermia); type: in vivo, CD-1 mice; conditions: mice, 5 mg/kg sc
T3 construct: from tissue; host or cells: whole animal, male CD-1 mice
T3 sequence (Q64264 1-421): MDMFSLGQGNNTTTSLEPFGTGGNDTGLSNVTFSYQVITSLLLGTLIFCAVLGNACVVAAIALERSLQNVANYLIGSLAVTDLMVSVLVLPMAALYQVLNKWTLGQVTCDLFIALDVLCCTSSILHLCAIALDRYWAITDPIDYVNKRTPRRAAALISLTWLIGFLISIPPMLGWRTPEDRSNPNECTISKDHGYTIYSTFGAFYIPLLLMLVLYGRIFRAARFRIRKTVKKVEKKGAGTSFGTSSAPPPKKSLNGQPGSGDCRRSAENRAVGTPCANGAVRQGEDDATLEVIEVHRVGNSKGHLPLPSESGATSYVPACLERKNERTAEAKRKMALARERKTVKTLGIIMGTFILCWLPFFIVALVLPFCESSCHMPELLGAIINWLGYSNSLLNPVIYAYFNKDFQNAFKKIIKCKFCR
Protocol: The experiments were performed on male CD-1 mice (23–40 g). The animals were kept at room temperature (21 ± 2 °C) on a natural day-night cycle (March–October) and housed under standard laboratory conditions. They had free access to food and tap water before the experiment. Each experimental group consisted of 6–8 animals/dose. All the animals were used only once. 8-Hydroxy-2-(di-n-propylamino)tetralin hydro-bromide (8-OH-DPAT, Research Biochemical Inc.) was used as aqueous solution. […] Vehicle group was administered as 10% aqueous solution of dimethyl sulphoxide (DMSO). 8-OH-DPAT was injected subcutaneously (sc); 6a and 7g were given intraperitoneally (ip) in a volume of 10 mL/kg/mice. The obtained data were analyzed by Dunnett’s test (one drug administration) or by the Newman–Keuls test (two drugs administrations). Forced swim test: the obtained data was evaluated by one-way analysis of variance (ANOVA) followed by the Dunnett’s multiple comparisons test: p < 0.05 was considered significant.
The results were expressed as a change in body temperature (Δt) with respect to the basal body temperature, as measured at the beginning of the experiment.

T2 sequence (P31652 whole entry): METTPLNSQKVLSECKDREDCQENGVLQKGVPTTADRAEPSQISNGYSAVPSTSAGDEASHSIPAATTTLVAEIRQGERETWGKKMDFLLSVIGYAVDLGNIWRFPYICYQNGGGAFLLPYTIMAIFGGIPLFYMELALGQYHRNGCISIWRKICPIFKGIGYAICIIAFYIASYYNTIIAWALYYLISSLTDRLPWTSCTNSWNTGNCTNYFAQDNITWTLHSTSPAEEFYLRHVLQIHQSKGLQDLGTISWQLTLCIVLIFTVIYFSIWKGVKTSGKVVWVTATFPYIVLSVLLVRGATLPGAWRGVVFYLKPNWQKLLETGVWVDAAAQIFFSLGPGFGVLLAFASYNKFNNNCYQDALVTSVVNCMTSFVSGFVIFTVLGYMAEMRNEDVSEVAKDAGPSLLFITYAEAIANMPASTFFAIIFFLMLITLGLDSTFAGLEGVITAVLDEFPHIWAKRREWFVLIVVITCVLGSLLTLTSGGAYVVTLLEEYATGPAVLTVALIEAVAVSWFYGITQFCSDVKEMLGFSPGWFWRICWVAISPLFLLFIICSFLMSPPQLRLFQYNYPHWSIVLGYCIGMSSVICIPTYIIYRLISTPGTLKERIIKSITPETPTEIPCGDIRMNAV

| Structure (SMILES) | Ki (human 5-HT1A receptor) [µM] | melting point [°C] | Ki (SERT protein) [µM] | Δt ± SEM, body temperature (5-HT1A receptor; 30 min) | Δt ± SEM, body temperature (5-HT1A receptor; 60 min) | Δt ± SEM, body temperature (5-HT1A receptor; 90 min) [°C] | Δt ± SEM, body temperature (5-HT1A receptor; 120 min) [°C] |
| --- | --- | --- | --- | --- | --- | --- | --- |
| Cc1ccccc1-c1c(=O)n(CCCCN2CCC(c3noc4cc(F)ccc34)CC2)c(=O)n2ccccc12 [Compound 6b, 4-(2-Methylphenyl)-2-{4-[4-(6-fluoro-1,2-benzoxazol)-1-piperidyl]butyl}-pyrido[1,2-c]pyrimidine-1,3-dione] | 0.03 ± 0.0035 | 120 to 122 | > 5 |  |  |  |  |
| COc1ccccc1-c1c(=O)n(CCCCN2CCC(c3noc4cc(F)ccc34)CC2)c(=O)n2ccccc12 [Compound 6c, 4-(2-Methoxphenyl)-2-{4-[4-(6-fluoro-1,2-benzoxazol)-1-piperidyl]butyl}-pyrido[1,2-c]pyrimidine-1,3-dione] | 0.007 ± 0.001 | 65 to 70 | > 5 |  |  |  |  |
| O=c1c(-c2ccccc2F)c2ccccn2c(=O)n1CCCCN1CCC(c2noc3cc(F)ccc23)CC1 [Compound 6e, 4-(2-Fluorophenyl)-2-{4-[4-(6-fluoro-1,2-benzoxazol)-1-piperidyl]butyl}-pyrido[1,2-c]pyrimidine-1,3-dione] | 0.015 ± 0.0006 | 58 to 62 | > 1 |  |  |  |  |
| Cc1ccc(-c2c(=O)n(CCCCN3CCC(c4noc5cc(F)ccc45)CC3)c(=O)n3ccccc23)cc1 [Compound 6f, 4-(4-Methylphenyl)-2-{4-[4-(6-fluoro-1,2-benzoxazol)-1-piperidyl]butyl}-pyrido[1,2-c]pyrimidine-1,3-dione] | 0.074 ± 0.004 | 158 to 159 | 0.772 ± 0.036 |  |  |  |  |
| COc1ccc(-c2c(=O)n(CCCCN3CCC(c4noc5cc(F)ccc45)CC3)c(=O)n3ccccc23)cc1 [Compound 6g, 4-(4-Methoxyphenyl)-2-{4-[4-(6-fluoro-1,2-benzoxazol)-1-piperidyl]butyl}-pyrido[1,2-c]pyrimidine-1,3-dione] | 0.01 ± 0.0011 | 163 to 166 | 0.73 ± 0.079 |  |  |  |  |
| O=c1c(-c2ccc(Cl)cc2)c2ccccn2c(=O)n1CCCCN1CCC(c2noc3cc(F)ccc23)CC1 [Compound 6h, 4-(4-Chlorophenyl)-2-{4-[4-(6-fluoro-1,2-benzoxazol)-1-piperidyl]butyl}-pyrido[1,2-c]pyrimidine-1,3-dione] | 0.021 ± 0.0015 | 152 to 155 | 0.31 ± 0.001 |  |  |  |  |
| O=c1c(-c2ccc(F)cc2)c2ccccn2c(=O)n1CCCCN1CCC(c2noc3cc(F)ccc23)CC1 [Compound 6i, 4-(4-Fluorophenyl)-2-{4-[4-(6-fluoro-1,2-benzoxazol)-1-piperidyl]butyl}-pyrido[1,2-c]pyrimidine-1,3-dione] | 0.017 ± 0.002 | 102 to 107 | 0.342 ± 0.0288 |  |  |  |  |
| CCCN(CCC)C1CCc2cccc(O)c2C1 (stereo not drawn) [Compound 8-OH-DPAT, 8-Hydroxy-2-(di-n-propylamino)tetralin hydro-bromide, reference compound] |  |  |  | −1.7 ± 0.2 ^b °C | −1.1 ± 0.2 ^b °C | −0.1 ± 0.1 | 0.3 ± 0.3 |

Second part, led by results:

| Ki (human 5-HT1A receptor) [µM] | melting point [°C] | Ki (SERT protein) [µM] | Structure (SMILES) | Δt ± SEM, body temperature (5-HT1A receptor; 30 min) | Δt ± SEM, body temperature (5-HT1A receptor; 60 min) | Δt ± SEM, body temperature (5-HT1A receptor; 90 min) [°C] | Δt ± SEM, body temperature (5-HT1A receptor; 120 min) [°C] |
| --- | --- | --- | --- | --- | --- | --- | --- |
| 0.027 ± 0.002 | 110 to 113 | 0.52 ± 0.0588 | O=c1c(-c2ccccc2)c2n(c(=O)n1CCCCN1CCC(c3noc4cc(F)ccc34)CC1)CCCC2 [Compound 7a, 4-Phenyl-2-{4-[4-(6-fluoro-1,2-benzoxazol-3-yl)-1-piperidyl]butyl}-5,6,7,8-tetrahydro-pyrido[1,2-c]pyrimidine-1,3-dione] |  |  |  |  |
| 0.035 ± 0.0035 |  | > 1 | Cc1ccccc1-c1c2n(c(=O)n(CCCCN3CCC(c4noc5cc(F)ccc45)CC3)c1=O)CCCC2 [Compound 7b, 4-(2-Methylphenyl)-2-{4-[4-(6-fluoro-1,2-benzoxazol)-1-piperidyl]butyl}-5,6,7,8-tetrahydro-pyrido[1,2-c]pyrimidine-1,3-dione] |  |  |  |  |
| 0.062 ± 0.006 |  | 0.878 ± 0.088 | COc1ccccc1-c1c2n(c(=O)n(CCCCN3CCC(c4noc5cc(F)ccc45)CC3)c1=O)CCCC2 [Compound 7c, 4-(2-Methoxphenyl)-2-{4-[4-(6-fluoro-1,2-benzoxazol)-1-piperidyl]butyl}-5,6,7,8-tetrahydro-pyrido[1,2-c]pyrimidine-1,3-dione] |  |  |  |  |
| 0.071 ± 0.0069 |  | 0.31 ± 0.0345 | O=c1c(-c2ccccc2Cl)c2n(c(=O)n1CCCCN1CCC(c3noc4cc(F)ccc34)CC1)CCCC2 [Compound 7d, 4-(2-Chlorophenyl)-2-{4-[4-(6-fluoro-1,2-benzoxazol)-1-piperidyl]butyl}-5,6,7,8-tetrahydro-pyrido[1,2-c]pyrimidine-1,3-dione] |  |  |  |  |
| 0.036 ± 0.0041 |  | > 1 | O=c1c(-c2ccccc2F)c2n(c(=O)n1CCCCN1CCC(c3noc4cc(F)ccc34)CC1)CCCC2 [Compound 7e, 4-(2-Fluorophenyl)-2-{4-[4-(6-fluoro-1,2-benzoxazol)-1-piperidyl]butyl}-5,6,7,8-tetrahydro-pyrido[1,2-c]pyrimidine-1,3-dione] |  |  |  |  |
| 0.052 ± 0.0025 | 107 to 110 | 1.77 ± 0.18 | Cc1ccc(-c2c3n(c(=O)n(CCCCN4CCC(c5noc6cc(F)ccc56)CC4)c2=O)CCCC3)cc1 [Compound 7f, 4-(4-Methylphenyl)-2-{4-[4-(6-fluoro-1,2-benzoxazol)-1-piperidyl]butyl}-5,6,7,8-tetrahydro-pyrido[1,2-c]pyrimidine-1,3-dione] |  |  |  |  |
| 0.025 ± 0.003 | 116 to 120 | 0.29 ± 0.0227 | O=c1c(-c2ccc(Cl)cc2)c2n(c(=O)n1CCCCN1CCC(c3noc4cc(F)ccc34)CC1)CCCC2 [Compound 7h, 4-(4-Chlorophenyl)-2-{4-[4-(6-fluoro-1,2-benzoxazol)-1-piperidyl]butyl}-5,6,7,8-tetrahydro-pyrido[1,2-c]pyrimidine-1,3-dione] |  |  |  |  |
